Consider 15 molecules from US7722876B2 (priority 2002, dated 2010).

Each structure is given as a SMILES string. Where a SMILES comes first, the peptide text is derived from it. Where only a bound is given, the exact number is not on record here.

What is called IC50 is the concentration needed to halve the response being measured.

In one data set the test system is C.albicans UP10 cells. The following applies: 6 h.
In turn, `CC(C)[C@H](NC(=O)CNC(=O)[C@H](Cc1ccc(O)cc1)NC(=O)CN)C(=O)N[C@@H](CC(N)=O)C(N)=O` [Heavy chain CDR-1] (H-GYGVN-NH2; N-terminus and C-terminus assumed) returned an IC50 of 267 nM. `CC[C@H](C)[C@H](NC(=O)[C@@H](N)CCSC)C(=O)N[C@@H](Cc1c[nH]c2ccccc12)C(=O)NCC(=O)N[C@@H](CC(=O)O)C(=O)NCC(=O)N[C@@H](CO)C(=O)N[C@H](C(=O)N[C@@H](CC(=O)O)C(=O)N[C@@H](Cc1ccc(O)cc1)C(=O)N[C@@H](CC(N)=O)C(=O)N[C@@H](CO)C(=O)N[C@@H](C)C(=O)N[C@@H](CC(C)C)C(N)=O)[C@@H](C)O` [Heavy chain CDR-2] (H-MIWGDGSTDYNSAL-NH2; N-terminus and C-terminus assumed) gave an IC50 of 117 nM. As to `CSCC[C@H](NC(=O)[C@H](C)NC(=O)[C@H](Cc1ccc(O)cc1)NC(=O)[C@@H](N)CC(C)C)C(N)=O` [Heavy chain CDR-3] (H-LYAM-NH2; N-terminus and C-terminus assumed), half-maximal inhibition (IC50) was put at 109 nM.

On to `CSCC[C@H](NC(=O)[C@H](Cc1ccc(O)cc1)NC(=O)[C@H](CO)NC(=O)[C@@H](NC(=O)[C@H](CO)NC(=O)[C@H](CO)NC(=O)[C@H](CO)NC(=O)[C@H](C)NC(=O)[C@@H](N)CO)C(C)C)C(=O)N[C@@H](Cc1ccc(O)cc1)C(N)=O` [Light chain CDR-1] (H-SASSSVSYMY-NH2; N-terminus and C-terminus assumed), for which the midpoint of inhibition, the IC50, lay at 692 nM. On to `CC(C)C[C@H](NC(=O)[C@H](CC(N)=O)NC(=O)[C@H](CO)NC(=O)[C@@H](NC(=O)[C@@H](N)CC(C)C)[C@@H](C)O)C(=O)N[C@@H](C)C(=O)N[C@@H](CO)C(N)=O` [Light chain CDR-2] (H-LTSNLAS-NH2; N-terminus and C-terminus assumed), for which the IC50 was found to be 234 nM. Turning to `NC(=O)CC[C@H](NC(=O)[C@@H](N)CCC(N)=O)C(=O)N[C@@H](Cc1c[nH]c2ccccc12)C(=O)N[C@@H](CO)C(=O)N[C@@H](CO)C(=O)N[C@@H](CC(N)=O)C(=O)N1CCC[C@H]1C(=O)N[C@@H](Cc1ccc(O)cc1)C(N)=O` [Light chain CDR-3] (H-QQWSSNPY-NH2; N-terminus and C-terminus assumed), the IC50 was found to be 200 nM. As to `CSCC[C@H](NC(=O)[C@@H](NC(=O)[C@@H](NC(=O)[C@H](CCCCN)NC(=O)[C@H](C)N)C(C)C)[C@@H](C)O)C(=O)N[C@H](C(=O)N[C@@H](CS)C(=O)N[C@@H](CO)C(=O)N[C@@H](C)C(N)=O)[C@@H](C)O` [SEQ ID 14] (H-AKVTMTCSA-NH2; N-terminus and C-terminus assumed), the IC50 was determined as 50000 nM.

For `CSCC[C@H](NC(=O)[C@@H](NC(=O)[C@@H](NC(=O)[C@H](CCCCN)NC(=O)[C@H](C)N)C(C)C)[C@@H](C)O)C(=O)N[C@H](C(=O)N[C@@H](CS)C(=O)N[C@@H](CO)C(N)=O)[C@@H](C)O` [SEQ ID 15] (H-AKVTMTCS-NH2; N-terminus and C-terminus assumed), the IC50 worked out at 23000 nM. Regarding `CSCC[C@H](NC(=O)[C@@H](NC(=O)[C@@H](NC(=O)[C@H](CCCCN)NC(=O)[C@H](C)N)C(C)C)[C@@H](C)O)C(=O)N[C@H](C(=O)N[C@@H](CS)C(N)=O)[C@@H](C)O` [SEQ ID 16] (H-AKVTMTC-NH2; N-terminus and C-terminus assumed), inhibition was half-maximal at 600 nM (IC50). `CSCC[C@H](NC(=O)[C@@H](NC(=O)[C@@H](NC(=O)[C@H](CCCCN)NC(=O)[C@H](C)N)C(C)C)[C@@H](C)O)C(=O)N[C@H](C(N)=O)[C@@H](C)O` [SEQ ID 17] (H-AKVTMT-NH2; N-terminus and C-terminus assumed): the IC50 was 730000 nM. Turning to `CSCC[C@H](NC(=O)[C@@H](NC(=O)[C@@H](NC(=O)[C@H](CCCCN)NC(=O)[C@H](C)N)C(C)C)[C@@H](C)O)C(N)=O` [SEQ ID 18] (H-AKVTM-NH2; N-terminus and C-terminus assumed), the IC50 came out at 25000 nM.

In turn, `CC(C)[C@H](NC(=O)[C@H](CCCCN)NC(=O)[C@H](C)N)C(=O)N[C@H](C(N)=O)[C@@H](C)O` [SEQ ID 19] (H-AKVT-NH2; N-terminus and C-terminus assumed) gave an IC50 of 710000 nM. In turn, `CC(C)[C@H](NC(=O)[C@H](CCCCN)NC(=O)[C@H](C)N)C(N)=O` [SEQ ID 20] (H-Ala-Lys-Val-NH2; N-terminus and C-terminus assumed) showed an IC50 of 10000 nM.

The subject of another data set is fluconazole-resistant (AIDS 68) C.albicans. Type of data set: in vivo, Candida albicans. The note with it: day 0; rats; 100 μg fluconazole at 1, 24, 48 h.
As to `OC(Cn1cncn1)(Cn1cncn1)c1ccc(F)cc1F` [fluconazole], the “C. albicans vaginal CFU (×10^3) (±SD)” value was >100 ×10^3.

Still in this data set, the particulars now being: day 7; rats; 100 μg fluconazole at 1, 24, 48 h.
As for `OC(Cn1cncn1)(Cn1cncn1)c1ccc(F)cc1F` [fluconazole], the “C. albicans vaginal CFU (×10^3) (±SD)” value is given as 64 ± 6 ×10^3.

The data set is the same for the next values; noted with them: day 14; rats; 100 μg fluconazole at 1, 24, 48 h.
Consider `OC(Cn1cncn1)(Cn1cncn1)c1ccc(F)cc1F` [fluconazole], for which the “C. albicans vaginal CFU (×10^3) (±SD)” value is 48 ± 3 ×10^3.

Staying with this data set, now noted: day 28; rats; 100 μg fluconazole at 1, 24, 48 h.
`OC(Cn1cncn1)(Cn1cncn1)c1ccc(F)cc1F` [fluconazole]: the “C. albicans vaginal CFU (×10^3) (±SD)” value was 12 ± 4 ×10^3.

Another data set relates to LLC-MK2 rhesus monkey kidney cells.
Settings: not given
On to `CSCC[C@H](NC(=O)[C@@H](NC(=O)[C@@H](NC(=O)[C@H](CCCCN)NC(=O)[C@H](C)N)C(C)C)[C@@H](C)O)C(=O)N[C@H](C(=O)N[C@@H](CS)C(=O)N[C@@H](CO)C(=O)N[C@@H](C)C(=O)N[C@@H](CO)C(N)=O)[C@@H](C)O` [KM] (H-AKVTMTCSAS-NH2), for which the “toxic effects on cell viability” value is “no toxic effects”.
